Experimental findings from patent US9670162B2, “Mitochondrial aldehyde dehyrogenase-2 modulators and methods of use thereof” (The Board of Trustees of the Leland Stanford Junior …, priority 2013, dated 2017) are described below.

Data set [1] is described as follows: Plasma protein binding (PPB), rat. It is filed as in vitro ADME. On the procedure: (§1) In vitro ADMET of compounds of the present disclosure was carried out according to known methods in the art. Below are data for certain compounds of the present disclosure.
A further data set in a line: RLM stability T1/2. It is filed as in vitro ADME. The conditions noted are these: rat, liver microsomes. On the procedure:
as §1

The next data set has as its target CYP2C19 (Homo sapiens, UniProt P33261). Nature of the data set: Cyp inhibition 2C19. In kind it is in vitro ADME. Set-up: inhibition: dose or concentration left out as unconfirmed. How it is done:
as §1

The next data set is described as follows: NHPLM stability T1/2. In kind it is in vitro ADME. The following applies: monkey, liver microsomes. How it is done:
as §1
A general note: Liver microsomes are vesicles of endoplasmic reticulum, rich in cytochrome P450 enzymes.

A short description of another data set: LogD (pH 7.4). In kind it is physicochemical. How it is done: as §1
Data set [2] relates to ALDH-2 (or mutant) enzyme. Nature of the data set: Rate of 4-HNE oxidation by ALDH-2. The conditions noted are these: 4-HNE substrate, O.D. 340 nm, 25° C. In kind it is biochemical. On the procedure:
The effect of compound 161 on the rate of 4-HNE oxidation by ALDH-2 was carried out by methods known in the art. To each well of a 96-well flat bottom UV plate, the following reagents were sequentially added by pipetting:
50 μl of 100 mM sodium pyrophosphate decahydrate (NaPPi, pH 8.4)
25 μl of 10 mM nicotinamide adenine dinucleotide hydrate (NAD)
1 μl of 20 mM testing compound DMSO solution
The plate was then put on a shaker to mix the cocktails in wells. After 5 minutes of mixing, 1 ul of ALDH-2 (or mutant) enzyme was added to each well with the reagent cocktail. DMSO was used as blank control in the plate. The plate was again put on shaker for another 5 minutes of shaking to enhance bonding between testing compounds and the enzyme.
1 ul of 30 mM 4-HNE in water was then added to each of wells containing the above reaction mixture. After a short vigorous mixing, the UV plate was fed into a plate reader to measure kinetic optical density (O.D.) at wavelength 340 nm at 25° C. over 4 minutes. Each point of measurement was taken at a time interval of 40 seconds.

Data set [3] is described as follows: Plasma protein binding (PPB), human. It is filed as in vitro ADME. On the procedure: as §1
A further data set in a line: HLM stability T1/2. It is filed as in vitro ADME. The following applies: human, liver microsomes; read-out: metabolism (HLM, t1/2). On the procedure:
as §1

Another data set in a line: Plasma stability, human. In kind it is in vitro ADME. How it is done: as §1
Data set [4] addresses T1, human ALDH2*2 recombinant mutant enzyme (E487K) (Homo sapiens, UniProt P05091, E504K).
T1 construct: His-tag (pTrcHis vector) (N); made in house; host or cells: E. coli BL21
T1 sequence (P05091 18-517 E504K): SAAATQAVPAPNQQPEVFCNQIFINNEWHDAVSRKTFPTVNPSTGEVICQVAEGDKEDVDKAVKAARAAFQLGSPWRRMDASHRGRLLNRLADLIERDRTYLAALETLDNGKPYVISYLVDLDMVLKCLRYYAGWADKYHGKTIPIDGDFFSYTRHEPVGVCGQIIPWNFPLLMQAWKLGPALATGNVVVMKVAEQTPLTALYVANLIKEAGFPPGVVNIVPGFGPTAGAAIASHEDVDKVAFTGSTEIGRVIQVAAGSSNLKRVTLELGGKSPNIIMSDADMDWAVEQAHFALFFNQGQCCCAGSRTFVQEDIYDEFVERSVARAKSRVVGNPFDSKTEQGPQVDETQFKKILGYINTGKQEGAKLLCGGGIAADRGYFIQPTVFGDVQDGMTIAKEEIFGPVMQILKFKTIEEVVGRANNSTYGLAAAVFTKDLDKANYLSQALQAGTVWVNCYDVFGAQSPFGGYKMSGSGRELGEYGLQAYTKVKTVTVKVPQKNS
Nature of the data set: ALDH2 enzymatic assay (NADH at 340 nm), recombinant mutant enzyme. It is filed as biochemical. On the set-up: key: −: no activation or inhibition; +: activation less than control 1; ++: activation similar to control 1, within 10%; +++: activation more than control 1 and less than control (compound 161); ++++: activation similar to compound 161, within 10%. The following applies: activation relative to benchmarks control 1 and compound 161.

In the next data set the target is CYP2D6 (Homo sapiens, UniProt P10635). Nature of the data set: Cyp inhibition 2D6. It is filed as in vitro ADME. How it is done: as §1
Chain of CYP2D6 (P10635 whole entry): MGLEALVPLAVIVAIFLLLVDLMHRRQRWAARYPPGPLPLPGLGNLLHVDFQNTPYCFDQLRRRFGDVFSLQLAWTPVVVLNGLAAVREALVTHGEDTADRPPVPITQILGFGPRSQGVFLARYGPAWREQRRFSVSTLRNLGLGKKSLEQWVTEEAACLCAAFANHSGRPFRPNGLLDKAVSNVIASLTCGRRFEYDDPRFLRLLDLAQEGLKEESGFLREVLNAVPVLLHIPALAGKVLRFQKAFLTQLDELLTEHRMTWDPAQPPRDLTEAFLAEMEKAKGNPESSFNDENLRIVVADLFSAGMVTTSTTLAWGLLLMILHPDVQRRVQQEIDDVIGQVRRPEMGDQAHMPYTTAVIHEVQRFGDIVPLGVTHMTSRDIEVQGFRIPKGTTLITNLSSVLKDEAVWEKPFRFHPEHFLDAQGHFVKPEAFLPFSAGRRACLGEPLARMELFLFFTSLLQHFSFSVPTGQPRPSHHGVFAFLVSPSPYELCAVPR
Another data set addresses CYP3A4 (Homo sapiens, UniProt P08684). Nature of the data set: Cyp inhibition 3A4. In kind it is in vitro ADME. On the set-up: inhibition: dose or concentration left out as unconfirmed. On the procedure: as §1
The nature of another data set: Plasma stability, rat. It is filed as in vitro ADME. On the procedure: as §1
The next data set can be described thus: Caco-2 permeability. In kind it is in vitro ADME. The following applies: human. On the procedure: as §1
In general terms: Passage across Caco-2 layers is used to estimate intestinal permeability.

Another data set has as its target hERG channel (Homo sapiens, UniProt Q12809). Put plainly: hERG channel patch-clamp. It is filed as cell-based.

The structures appear in SMILES notation.

Chain of CYP2C19 (P33261 whole entry): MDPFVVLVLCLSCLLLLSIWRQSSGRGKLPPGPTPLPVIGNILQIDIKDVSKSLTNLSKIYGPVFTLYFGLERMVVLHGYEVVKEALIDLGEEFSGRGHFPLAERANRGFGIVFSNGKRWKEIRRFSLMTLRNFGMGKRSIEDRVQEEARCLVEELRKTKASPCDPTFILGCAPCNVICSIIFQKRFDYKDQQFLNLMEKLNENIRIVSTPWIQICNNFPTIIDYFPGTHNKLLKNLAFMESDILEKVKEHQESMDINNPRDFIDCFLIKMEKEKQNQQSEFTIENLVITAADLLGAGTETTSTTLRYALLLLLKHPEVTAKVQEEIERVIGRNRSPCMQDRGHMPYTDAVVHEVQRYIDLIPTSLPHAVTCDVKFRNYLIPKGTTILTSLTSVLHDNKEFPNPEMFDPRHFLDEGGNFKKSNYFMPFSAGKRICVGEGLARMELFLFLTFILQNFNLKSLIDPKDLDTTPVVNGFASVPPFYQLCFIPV
Chain of CYP3A4 (P08684 whole entry): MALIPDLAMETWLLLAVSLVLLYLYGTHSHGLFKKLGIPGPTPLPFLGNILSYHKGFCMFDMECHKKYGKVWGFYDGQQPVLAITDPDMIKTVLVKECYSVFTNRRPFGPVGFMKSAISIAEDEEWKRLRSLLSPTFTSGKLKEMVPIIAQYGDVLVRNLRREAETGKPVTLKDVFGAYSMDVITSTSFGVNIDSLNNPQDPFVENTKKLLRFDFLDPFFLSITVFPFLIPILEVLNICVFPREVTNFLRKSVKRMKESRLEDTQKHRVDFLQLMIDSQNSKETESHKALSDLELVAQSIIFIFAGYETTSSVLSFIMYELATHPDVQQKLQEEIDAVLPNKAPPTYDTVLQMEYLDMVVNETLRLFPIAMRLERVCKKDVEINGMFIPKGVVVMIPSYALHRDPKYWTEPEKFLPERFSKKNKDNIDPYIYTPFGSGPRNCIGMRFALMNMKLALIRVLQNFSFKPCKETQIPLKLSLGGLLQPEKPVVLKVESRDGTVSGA
Chain of hERG channel (Q12809 whole entry): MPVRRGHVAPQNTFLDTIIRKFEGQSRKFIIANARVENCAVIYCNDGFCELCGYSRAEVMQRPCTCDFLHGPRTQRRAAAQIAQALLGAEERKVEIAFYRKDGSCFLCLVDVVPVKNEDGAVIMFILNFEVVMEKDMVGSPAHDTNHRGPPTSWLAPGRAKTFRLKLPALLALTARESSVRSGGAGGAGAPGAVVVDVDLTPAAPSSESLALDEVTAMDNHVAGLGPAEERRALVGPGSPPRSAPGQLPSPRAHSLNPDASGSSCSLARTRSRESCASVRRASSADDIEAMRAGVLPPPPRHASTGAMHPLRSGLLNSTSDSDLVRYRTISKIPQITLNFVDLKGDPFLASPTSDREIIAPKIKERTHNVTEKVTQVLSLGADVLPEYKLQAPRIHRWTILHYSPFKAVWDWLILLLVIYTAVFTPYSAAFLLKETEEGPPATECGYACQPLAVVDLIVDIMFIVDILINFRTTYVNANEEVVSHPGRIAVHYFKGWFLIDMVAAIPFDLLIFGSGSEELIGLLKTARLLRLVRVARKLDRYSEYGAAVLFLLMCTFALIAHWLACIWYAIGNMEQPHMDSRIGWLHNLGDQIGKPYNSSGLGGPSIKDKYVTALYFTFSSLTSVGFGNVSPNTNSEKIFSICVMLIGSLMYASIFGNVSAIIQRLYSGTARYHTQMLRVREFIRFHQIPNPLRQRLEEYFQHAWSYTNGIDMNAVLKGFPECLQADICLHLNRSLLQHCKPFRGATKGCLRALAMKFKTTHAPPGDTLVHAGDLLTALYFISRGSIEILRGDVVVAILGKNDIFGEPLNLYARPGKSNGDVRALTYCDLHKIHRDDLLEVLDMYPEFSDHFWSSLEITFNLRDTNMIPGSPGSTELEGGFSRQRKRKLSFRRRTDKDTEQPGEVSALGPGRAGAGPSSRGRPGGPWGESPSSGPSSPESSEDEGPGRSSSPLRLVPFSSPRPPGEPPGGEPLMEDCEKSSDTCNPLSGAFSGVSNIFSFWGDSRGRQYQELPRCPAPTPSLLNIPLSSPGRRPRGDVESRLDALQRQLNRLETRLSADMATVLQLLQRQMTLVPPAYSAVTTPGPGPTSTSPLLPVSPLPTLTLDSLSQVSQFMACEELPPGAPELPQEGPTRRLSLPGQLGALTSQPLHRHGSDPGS

With `COc1ccc(CNC(=O)c2c(Cl)ccnc2OCC2CC2)cc1F` [Compound 161], the values for the fraction unbound in data set [1] and in [3] were 0.039 and 0.007, respectively. Besides, the half-life was determined as 0.974 min in the data set “RLM stability T1/2”, 2.54 min in “NHPLM stability T1/2” and 12.4 min in the data set “HLM stability T1/2”. For the same molecule, the values for the inhibition on CYP2C19 and on CYP3A4 were 16% and 15%, respectively. Further, the inhibition (usually the relative decrease from the control value, in per cent) at 10 µM against CYP2C19 (10 μM) was found to be 15.9%; on CYP2D6, 6.4%; at CYP3A4 (10 μM), 14.9%. Besides, the logD (in general, the decadic logarithm of the distribution of all forms, ionised or not, between an organic phase and buffer at a given pH) in “LogD (pH 7.4)” worked out at 3. For the same molecule, the “rate of 4-HNE oxidation by ALDH-2” value in [2] was “accelerate the rate of 4-HNE oxidation”. Moreover, the “plasma stability (human, 5 h)” value in “Plasma stability, human” (5 h) was found to be 100%. For the same molecule, in the data set “Plasma stability, human” (plasma), the Plasma stability Human was found to be 100%. For the same molecule, in [4], the “ALDH2 (mutant)” value is on record as “++++”. This molecule yielded a Plasma stability Rat in the data set “Plasma stability, rat” of 100%. Besides, in “Caco-2 permeability” (A-B, read-out: absorption (Caco-2, Papp, A-B)), the Papp A→B (commonly how fast a substance crosses the layer from the apical side) was determined as 15.7 ×10⁻⁶ cm/s. For the same molecule, in the data set “Caco-2 permeability” (B-A), the basolateral-to-apical permeability (Papp B→A) – broadly, how fast a substance crosses the layer from the basolateral side – stood at 10.7 ×10⁻⁶ cm/s. In the data set “Caco-2 permeability” (ratio, read-out: Caco-2 Papp B-A/A-B), the efflux ratio amounted to 0.68. Further, the IC50 (in general, the concentration at which inhibition is half-maximal) against hERG channel was over 30 µM.
